Source: patent publication US6919331B2, “Substituted 2-methyl-benzimidazole respiratory syncytial virus antiviral agents” (Bristol-Myers Squibb Company, priority 2001, dated 2005)

Tested on: respiratory syncytial virus Long strain
Experiment: cell protection assay (RSV-induced cytopathic effects, MTT staining)
Type: cell-based
Protocol: For cell protection assays, HEp-2 (ATCC CCL 23) cells were seeded in 96 well microtiter plates at 1.5×10^4 cells/100 μL/well in DMEM (Dulbecco's Modified Eagle's Medium) supplemented with penicillin, streptomycin, glutamine, and 10% fetal bovine serum. After overnight incubation at 37° C., the culture medium was removed and cells were infected with respiratory syncytial virus Long strain at 5000 plaque forming units (PFU)/mL in a 100 μL volume of medium containing 2% fetal bovine serum. The compounds, 100 μL at appropriate dilution, were added to the cells one hour post infection. After incubation for 4 days at 37° C., the plates were stained with MTT solution (3-[4,5-dimethlythiazol-2-yl]-2,5-diphenyltetrazolium bromide) and incubated for 4 hours at 37° C. The media was aspirated from the cells and 100 μL/well of acidified isopropanol (per liter: 900 mL isopropanol, 100 mL Triton X100, and 4 mL conc. HCl) was added. Plates were incubated for 15 minutes at room temperature with shaking, and an optical density (OD 540) reading at 540 nanometer (nm) was obtained. The optical density reading is proportional to the number of viable cells. The increase in the number of viable cells reflects the protective, antiviral activity of the compound. […]

Compound `NC(=O)c1ncn([C@@H]2O[C@H](CO)[C@@H](O)[C@H]2O)n1` [Ribavirin] has a cell protection (at 2.5 μg/mL (corresponding to 10.2 μM), HEp-2 cells, RSV Long strain) of 100% and an EC50 (human respiratory syncytial virus, HEp-2 cells infected with RSV Long strain, compound added one hour post infection, 4 days, MTT, read-out: EC50 (concentration that produces 50% cell protection)) of 3 µM.
